# Measured values taken from patent publication US8383852B2, “Compounds having a cyclic moiety and compositions for delivering active agents” (Emisphere Technologies, Inc., priority 2007, dated 2013).
# Test system: male, Sprague-Dawley rats
# Experiment: Oral delivery of insulin in rats: change in whole blood glucose after insulin plus delivery agent
# Assay type: in vivo, rat
# Conditions: oral gavage
# Procedure: Human recombinant insulin (ICN Biomedicals, Aurora, Ohio) was dissolved in deionized water (ph ˜6.5) to obtain stock insulin solutions having a concentration of 15 mg/ml. 3-[4-(cyclopropylmethoxy)phenyl]propanoic acid (Emisphere Technologies, Tarrytown, N.Y.) was dissolved in deionized water to obtain a 200 mg/ml delivery agent solution. The free acid form of delivery agent as converted to the sodium salt by adding one equivalent of sodium hydroxide. Solutions were vortexted, sonicated, and heated. If necessary, additional sodium hydroxide was added in μl quantities to achieve uniform solubility in the delivery agent solutions. Solutions were adjusted to a pH of 3.5-8.5 by the addition of either hydrochloric acid or sodium hydroxide, as appropriate. The insulin stock solution was then added to the delivery agent solutions to obtain an administration solution ultimately having an insulin concentration of 0.5 mg/ml. After solubilization and drug addition, administration solutions were brought to a final volume by the addition of deionized water.
# Insulin was administered to male, Sprague-Dawley rats either alone or in combination with delivery agent by oral gavage (PO). Typically, rats were fasted for 18-24 hours prior to dosing. A Rusch 8 French catheter was cut to 11 cm in length and adapted to fit a 1 ml syringe. The syringe was filled with dosing solution and the catheter was inserted into the rat mouth and fed down the esophagus (10.0 cm). The dosing solution was delivered by pressing the syringe plunger while holding the rat in an upright position. The doses of delivery agent and
# […] The dose volume was 1 ml/kg. The weight of the rats in this invention ranges from 250 to 300 grams. The rat was weighted prior to the test and the dose volume was adjusted accordingly.
# Immediate to each blood sampling point, rats were exposed briefly (˜10 seconds) to carbon dioxide until prostrate. A 77-mm capillary tube was inserted into the retroorbital sinus. Typically, blood samples were collected prior to dosing (time=0) and at 15, 30, 45, and 60 minutes after dosing.
# To determine the pharmacodynamic response, a hand-held glucometer (OneTouch Ultra, LifeScan—Johnson & Johnson, New Brunswick, N.J.) was used to measure whole blood glucose after administration of insulin or insulin and delivery agent. After discarding the first drop of blood, a small sample (˜5-10 μls) was touched to the glucometer test strip (OneTouch Ultra, LifeScan) and a blood glucose reading was generated by the meter. Typically, samples were collected prior to dosing (time 0) and at 15, 30, 45, and 60 minutes after dosing.
# [1] = 15 min., insulin/delivery agent = 0.5 mg/200 mg per kg
# [2] = 30 min., insulin/delivery agent = 0.5 mg/200 mg per kg
# [3] = 45 min., insulin/delivery agent = 0.5 mg/200 mg per kg
# [4] = 60 min., insulin/delivery agent = 0.5 mg/200 mg per kg
# [5] = time 0, insulin/delivery agent = 0.5 mg/200 mg per kg
SMILES,Percent change in whole blood glucose from baseline (negative = reduction) [1] [%],Percent change in whole blood glucose from baseline (negative = reduction) [2] [%],Percent change in whole blood glucose from baseline (negative = reduction) [3] [%],Percent change in whole blood glucose from baseline (negative = reduction) [4] [%],Percent change in whole blood glucose from baseline (negative = reduction) [5]
"O=C(O)Cc1ccc(OCC2CC2)cc1 [Compound 5, [4-(cyclopropylmethoxy)phenyl]acetic acid]",−17.53,−26.944,−22.92,−18.62,−1.91%
"COc1cc(CC(=O)O)ccc1OC1CCCC1 [Compound 7, [4-(cyclopentyloxy)-3-methoxyphenyl]acetic acid]",−7.15,−17.37,−12.75,−12.77,11.87%
"O=C(O)c1ccccc1OCC1CC1 [Compound 9, 2-(cyclopropylmethoxy)benzoic acid]",−1.29,−6.99,−11.40,−11.75,−1.59%
"O=C(O)c1ccccc1OCC1CCC1 [Compound 6, 2-(cyclobutylmethoxy)benzoic acid]",−9.25,−20.51,−2.61,−2.75,6.37%
"O=C(O)c1ccccc1OC1CCCC1 [Compound 10, 2-(cyclopentyloxy)benzoic acid]",−6.94,−25.22,−29.27,−29.91,+16.39%
"O=C(O)c1ccccc1OCC1CCCCC1 [Compound 11, 2-(cyclohexylmethoxy)benzoic acid]",−4.82,−6.23,−19.71,−19.54,−1.27%
"O=C(O)c1ccc(OCC2CCC2)cc1 [Compound 2, 4-(cyclobutylmethoxy)benzoic acid]",−20.04,−32.2,−32.51,−19.95,7.51%
"O=C(O)CCc1ccc(OCC2CC2)cc1 [Compound 1, 3-[4-(cyclopropylmethoxy)phenyl]propanoic acid]",−17.26,−38.35,−43.75,−42.48,−4.64%
"COc1cc(CC(=O)O)ccc1OCC1CC1 [Compound 8, [4-(cyclopropylmethoxy)-3-methoxyphenyl]acetic acid]",−1.61,−14.21,−16.12,−18.19,18.75%
"COc1cc(CC(=O)O)ccc1OCC1CCC1 [Compound 3, [4-(cyclobutylmethoxy)-3-methoxyphenyl]acetic acid]",−15.04,−22.90,−21.04,−19.74,6.88%
"O=C(O)c1ccc(OCC2CC2)cc1 [Compound 4, 4-(cyclopropylmethoxy)benzoic acid]",−11.80,−32.15,−21.14,−16.78,1.72%
